What follows are compounds tested against T1, TrkA (Homo sapiens, UniProt P04629) (assay: Isolated TRK enzyme assay (HTRF KinEASE-TK kit), PV3144 TrkA enzyme assay). Conditions: PV3144 TrkA enzyme assay, recombinant His-tagged cytoplasmic domain aa 441-796, 4 nM enzyme, 40 uM ATP; arithmetic mean where more than one reading; read-out: Trka enzyme (IC50).
T1 construct: aa 441-796; His; purchased Invitrogen PV3144
Format: biochemical
Experimental: Isolated TRK Enzyme assays use the HTRF KinEASE-TK kit (Cisbio Cat#62TK0PEJ) with recombinant His-tagged cytoplasmic domains of each TRK receptor sourced from Invitrogen (see table below). This activity-assay measures the phosphorylation of tyrosine residues within a substrate from the HTRF kit which has been validated by Cisbio for a variety of tyrosine kinases including the TRK receptors.
0.5 mM stock solutions of test compounds are prepared and serially diluted in 100% DMSO. A standard curve using the compound of Example 135 disclosed in WO2005/116035 of 150 uM is also prepared on each test plate. High percentage effect (HPE) is defined by 150 uM (using the compound of Example 135 as disclosed in WO2005/116035) and 0% effect (ZPE) is defined by 100% DMSO. Greiner low volume black plates containing 0.2 ul of serially diluted compound, standard and HPE/ZPE are created using the Bravo nanolitre dispenser.
1X enzyme buffer is prepared from 5X Enzymatic Buffer from the Cisbio KinEASE TK kit using MilliQ water. The buffer is then supplemented with 10 mM MgCl and 2 mM DTT (both from Sigma). In the case of TRKB, the buffer is also supplemented with 125 nM Supplement Enzymatic Buffer (SEB) from the Cisbio kit.
2X FAC of enzyme and 2X FAC ATP diluted in 1X complete enzyme buffer is incubated at room temperature for 20 minutes to preactivate the enzyme. Following this preactivation step, 5 ul/well of enzyme+ATP mix is added using a Multidrop Micro to the assay plate, spotted with 0.2 ul 100% DMSO compound. This is left for 20 mins at room temperature before adding 5 ul of 2 uM TK-substrate-Biotin (from the Cisbio kit) diluted in 1X enzyme buffer (1 uM FAC) using the Multidrop Micro. The reaction is incubated at room temperature for the optimized assay reaction time (see table). The reaction is stopped by adding 10 ul/well HTRF Detection Buffer containing 0.25 uM Streptavidin-XL665 (0.125 uM FAC) and 1:200 TK Antibody-Cryptate using a Multidrop.
After the Detection Reagent addition, plates are covered and incubated at room temperature for 60 minutes. HTRF signal is read using an Envision reader, measured as a ratio of emissions at two different wavelengths, 620 nm and 665 nm. […] Test compound data are expressed as percentage inhibition defined by HPE and ZPE values for each plate. Percentage inhibition in the presence of test compound is plotted against compound concentration on a log scale to determine an IC50 from the resultant sigmoid curve.
Below are TrkA IC50 data generated using the PV3144 TrkA enzyme assay. Where more than one reading was taken, the arithmetic mean is presented.

T1 sequence (P04629 441-796): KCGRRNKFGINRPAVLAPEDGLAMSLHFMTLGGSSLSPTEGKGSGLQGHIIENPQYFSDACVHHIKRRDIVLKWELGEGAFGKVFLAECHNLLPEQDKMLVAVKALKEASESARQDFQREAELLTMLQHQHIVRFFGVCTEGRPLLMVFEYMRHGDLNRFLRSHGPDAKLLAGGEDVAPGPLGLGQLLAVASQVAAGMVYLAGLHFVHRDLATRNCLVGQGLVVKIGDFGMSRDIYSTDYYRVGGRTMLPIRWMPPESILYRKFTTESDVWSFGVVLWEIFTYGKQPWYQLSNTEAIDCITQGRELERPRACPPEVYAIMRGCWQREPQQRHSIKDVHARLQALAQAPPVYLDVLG

First: CC(C)n1cc(C(=O)c2ccnc(NC(=O)Cn3ccnc3)c2)c2cncnc21 [Example 156, 2-(1H-imidazol-1-yl)-N-(4-{[7-(propan-2-yl)-7H-pyrrolo[2,3-d]pyrimidin-5-yl]carbonyl}pyridin-2-yl)acetamide]
Second: Cc1cc(C)n(CC(=O)Nc2cc(C(=O)c3cn(C(C)C)c4ncncc34)ccn2)n1 [Example 152, 2-(3,5-dimethyl-1H-pyrazol-1-yl)-N-(4-{[7-(propan-2-yl)-7H-pyrrolo[2,3-d]pyrimidin-5-yl]carbonyl}pyridin-2-yl)acetamide]
The IC50 of the first is 15-fold higher: 1060 nM for the first, 71.2 nM for the second. The second is the more potent here.

Going from C[C@H](CO)n1cc(C(=O)c2cc(NC(=O)Cc3ccc(C#N)cc3)ccn2)c2cncnc21 [Example 23, 2-(4-cyanophenyl)-N-[2-({7-[(2R)-1-hydroxypropan-2-yl]-7H-pyrrolo[2,3-d]pyrimidin-5-yl}carbonyl)pyridin-4-yl]acetamide] to CC1(n2cc(C(=O)c3cc(NC(=O)Cc4ccc(C#N)cc4)ccn3)c3cncnc32)COC1 [Example 169, 2-(4-cyanophenyl)-N-(2-{[7-(3-methyloxetan-3-yl)-7H-pyrrolo[2,3-d]pyrimidin-5-yl]carbonyl}pyridin-4-yl)acetamide], the IC50 rises from 79.1 nM to 459 nM (5.8-fold).

Going from CC(C)(CO)n1cc(C(=O)c2ccc(C#N)c(NC(=O)Cn3cc(C(F)(F)F)nn3)c2)c2cnc(N)nc21 [Example 12, N-(5-{[2-amino-7-(1-hydroxy-2-methylpropan-2-yl)-7H-pyrrolo[2,3-d]pyrimidin-5-yl]carbonyl}-2-cyanophenyl)-2-[4-(trifluoromethyl)-1H-1,2,3-triazol-1-yl]acetamide] to CC(C)(CO)n1cc(C(=O)c2ccc(C#N)c(NC(=O)Cc3ccc(C(F)(F)F)cc3)c2)c2cnc(N)nc21 [Example 7, N-{5-[2-Amino-7-(2-hydroxy-1,1-dimethyl-ethyl)-7H-pyrrolo[2,3-d]pyrimidine-5-carbonyl]-2-cyano-phenyl}-2-(4-trifluoromethyl-phenyl)-acetamide], the IC50 falls from 60.7 nM to 5.93 nM (10-fold). The second is the more potent here.

Going from O=C(Cn1ccc(C(F)(F)F)n1)Nc1ccnc(C(=O)c2cn(C(CO)CO)c3ncncc23)c1 [Example 101, N-(2-{[7-(1,3-dihydroxypropan-2-yl)-7H-pyrrolo[2,3-d]pyrimidin-5-yl]carbonyl}pyridin-4-yl)-2-[3-(trifluoromethyl)-1H-pyrazol-1-yl]acetamide] to O=C(Cc1cccc(C(F)(F)F)c1)Nc1ccnc(C(=O)c2cn(C(CO)CO)c3ncncc23)c1 [Example 96, N-(2-{[7-(1,3-dihydroxypropan-2-yl)-7H-pyrrolo[2,3-d]pyrimidin-5-yl]carbonyl}pyridin-4-yl)-2-[3-(trifluoromethyl)phenyl]acetamide], the IC50 falls from 247 nM to 139 nM (1.8-fold).

CC(C)n1cc(C(=O)c2ccnc(NC(=O)Cc3ccc(OC(F)(F)F)cc3)c2)c2cncnc21 [Example 120, N-(4-{[7-(propan-2-yl)-7H-pyrrolo[2,3-d]pyrimidin-5-yl]carbonyl}pyridin-2-yl)-2-[4-(trifluoromethoxy)phenyl]acetamide] and CC(C)n1cc(C(=O)c2ccnc(NC(=O)Cc3ccc(Cl)cc3Cl)c2)c2cncnc21 [Example 157, 2-(2,4-dichlorophenyl)-N-(4-{[7-(propan-2-yl)-7H-pyrrolo[2,3-d]pyrimidin-5-yl]carbonyl}pyridin-2-yl)acetamide] are within 1.5-fold of each other in IC50: 18.6 nM for the first, 15.6 nM for the second.

Going from CC(CO)(CO)n1cc(C(=O)c2cc(NC(=O)Cc3cccc(C(F)(F)F)c3)ccn2)c2cncnc21 [Example 104, N-(2-{[7-(1,3-dihydroxy-2-methylpropan-2-yl)-7H-pyrrolo[2,3-d]pyrimidin-5-yl]carbonyl}pyridin-4-yl)-2-[3-(trifluoromethyl)phenyl]acetamide] to CC(C)(C)n1cc(C(=O)c2cc(NC(=O)Cc3cccc(S(C)(=O)=O)c3)ccn2)c2cncnc21 [Example 38, N-{2-[(7-tert-butyl-7H-pyrrolo[2,3-d]pyrimidin-5-yl)carbonyl]pyridin-4-yl}-2-[3-(methylsulfonyl)phenyl]acetamide], the IC50 falls from 91.1 nM to 9.61 nM (9.5-fold).

First: Cc1cc(C(F)(F)F)nn1CC(=O)Nc1ccnc(C(=O)c2cn(C(C)C)c3nc(N)ncc23)c1 [Example 84, N-(2-{[2-amino-7-(propan-2-yl)-7H-pyrrolo[2,3-d]pyrimidin-5-yl]carbonyl}pyridin-4-yl)-2-[5-methyl-3-(trifluoromethyl)-1H-pyrazol-1-yl]acetamide]
Second: CC(C)n1cc(C(=O)c2cc(NC(=O)Cc3ccc(F)cn3)ccn2)c2cnc(N)nc21 [Example 89, N-(2-{[2-amino-7-(propan-2-yl)-7H-pyrrolo[2,3-d]pyrimidin-5-yl]carbonyl}pyridin-4-yl)-2-(5-fluoropyridin-2-yl)acetamide]
The IC50 of the first is 2.8-fold lower: 27.1 nM for the first, 76.3 nM for the second.

Compared with CC(C)n1cc(C(=O)c2cc(NC(=O)Cc3cccc(S(C)(=O)=O)c3)ccn2)c2cncnc21 [Example 81, 2-[3-(methylsulfonyl)phenyl]-N-(2-{[7-(propan-2-yl)-7H-pyrrolo[2,3-d]pyrimidin-5-yl]carbonyl}pyridin-4-yl)acetamide], CS(=O)(=O)c1cccc(CC(=O)Nc2cc(C(=O)c3cn(CCO)c4ncncc34)ccn2)c1 [Example 131, N-(4-{[7-(2-hydroxyethyl)-7H-pyrrolo[2,3-d]pyrimidin-5-yl]carbonyl}pyridin-2-yl)-2-[3-(methylsulfonyl)phenyl]acetamide] is 4.1-fold higher in IC50: 268 nM for the first, 1110 nM for the second. The first is the more potent here.

Going from N#Cc1ccc(CC(=O)Nc2cc(C(=O)c3cn([C@H]4CC[C@H](O)CC4)c4ncncc34)ccn2)cc1 [Example 2, 2-(4-cyanophenyl)-N-(4-{[7-(trans-4-hydroxycyclohexyl)-7H-pyrrolo[2,3-d]pyrimidin-5-yl]carbonyl}pyridine-2-yl)acetamide] to CC(C)(CO)n1cc(C(=O)c2ccnc(NC(=O)Cc3ccc(C#N)cc3)c2)c2cncnc21 [Example 111, 2-(4-cyanophenyl)-N-(4-{[7-(1-hydroxy-2-methylpropan-2-yl)-7H-pyrrolo[2,3-d]pyrimidin-5-yl]carbonyl}pyridin-2-yl)acetamide], the IC50 falls from 84 nM to 31.8 nM (2.6-fold).

Compared with Cc1cc(C(=O)c2cn(C(C)C)c3ncncc23)cc(NC(=O)Cc2ccc(C#N)c(C(F)(F)F)c2)n1 [Example 78, 2-[4-cyano-3-(trifluoromethyl)phenyl]-N-(6-methyl-4-{[7-(propan-2-yl)-7H-pyrrolo[2,3-d]pyrimidin-5-yl]carbonyl}pyridin-2-yl)acetamide], CC(C)n1cc(C(=O)c2ccnc(NC(=O)Cn3cc(C(F)(F)F)nn3)c2)c2cncnc21 [Example 116, N-(4-{[7-(propan-2-yl)-7H-pyrrolo[2,3-d]pyrimidin-5-yl]carbonyl}pyridin-2-yl)-2-[4-(trifluoromethyl)-1H-1,2,3-triazol-1-yl]acetamide] is 2-fold lower in IC50: 118 nM for the first, 59.7 nM for the second. The second is the more potent here.

Compared with Cc1ccn(CC(=O)Nc2cc(C(=O)c3cn(CCO)c4ncncc34)ccn2)n1 [Example 128, N-(4-{[7-(2-hydroxyethyl)-7H-pyrrolo[2,3-d]pyrimidin-5-yl]carbonyl}pyridin-2-yl)-2-(3-methyl-1H-pyrazol-1-yl)acetamide], Cc1cn(CC(=O)Nc2cc(C(=O)c3cn(CCO)c4ncncc34)ccn2)nn1 [Example 133, N-(4-{[7-(2-hydroxyethyl)-7H-pyrrolo[2,3-d]pyrimidin-5-yl]carbonyl}pyridin-2-yl)-2-(4-methyl-1H-1,2,3-triazol-1-yl)acetamide] is 7.6-fold higher in IC50: 1230 nM for the first, 9380 nM for the second. The first is the more potent here.

Going from CC(C)(CO)n1cc(C(=O)c2cc(NC(=O)Cc3ccc(C(F)(F)F)cc3)ccn2)c2cnc(N)nc21 [Example 50, N-(2-{[2-amino-7-(1-hydroxy-2-methylpropan-2-yl)-7H-pyrrolo[2,3-d]pyrimidin-5-yl]carbonyl}pyridin-4-yl)-2-[4-(trifluoromethyl)phenyl]acetamide] to CC(C)(CO)n1cc(C(=O)c2cc(NC(=O)Cc3ccc(C#N)cc3)ccn2)c2cnc(N)nc21 [Example 51, N-(2-{[2-amino-7-(1-hydroxy-2-methylpropan-2-yl)-7H-pyrrolo[2,3-d]pyrimidin-5-yl]carbonyl}pyridin-4-yl)-2-(4-cyanophenyl)acetamide], the IC50 rises from 9.29 nM to 78.7 nM (8.5-fold). The first is the more potent here.

CC(C)n1cc(C(=O)c2ccnc(NC(=O)Cc3ccc(C#N)cc3)c2)c2cnc(N)nc21 [Example 45, N-(4-{[2-amino-7-(propan-2-yl)-7H-pyrrolo[2,3-d]pyrimidin-5-yl]carbonyl}pyridin-2-yl)-2-(4-cyanophenyl)acetamide] showed an IC50 of 36.1 nM.
